Experimental findings from US20250145622A1, “SOLID FORMS OF A TRIAZINE DERIVATIVE AS CBL-B MODULATOR” (HOTSPOT THERAPEUTICS, INC., priority 2022, published 2025) are described below.

Format in all cases: physicochemical
Series [1] in a line: Solubility determination by solvent addition (visual assessment). The settings on record: thermodynamic from solid. Here is the method:
Aliquots of various solvents were added to measured amounts of the anhydrous crystalline form of the compound of formula (I) at various temperatures with sonication or stirring. Solubilities were calculated based on the total solvent used to give a solution; actual solubilities may be greater because of the volume of solvent portions utilized or a slow rate of dissolution. […] If dissolution occurred at the first aliquot the value was reported as “>”.

Series [2] is described as follows: Dynamic vapor sorption (DVS), water sorption isotherm.
Assay in series [3]: as above
Here is the method:
Vapor sorption data were collected on a Surface Measurement System DVS Intrinsic instrument. Samples were not dried prior to analysis. Sorption and desorption data were collected over a range from 5% to 95% RH at 10% RH increments under a nitrogen purge. The equilibrium criterion used for analysis was less than 0.0100% weight change in 5 minutes with a maximum equilibration time of 3 hours.
The source holds these as a separate data set.

Values after ≈ are worked out from the molar mass of the structure shown. “Also recorded” adds a separate entry of the source. Like-named read-outs stand apart in the source and are kept apart here. Some results are limits rather than exact numbers.

For the compound `C[C@H]1CCCN(Cc2cc(C(F)(F)F)c3cn(-c4cccc([C@H](c5nncn5C)C5CCC5)c4)c(=O)n3c2)C1`, the solubility in series [1] (water, 25° C., by solvent addition, read-out: aqueous solubility) was more than 111 mg/mL.
For `C[C@H]1CCCN(Cc2cc(C(F)(F)F)c3cn(-c4cccc([C@H](c5nncn5C)C5CCC5)c4)c(=O)n3c2)C1` [2-(3-((R)-cyclobutyl(4-methyl-4H-1,2,4-triazol-3-yl)methyl)phenyl)-6-(((S)-3-methylpiperidin-1-yl)methyl)-8-(trifluoromethyl)imidazo[1,5-a]pyridin-3(2H)-one], the solubility in series [1] (aqueous with cosolvent or surfactant or cyclodextrin, solvent Water/EtOH (20/80 v/v), read-out: Solubility) is more than 29 mg/mL; in series [1] (aqueous with cosolvent or surfactant or cyclodextrin, solvent Water/EtOH (40/60 v/v), read-out: Solubility) it was more than 36 mg/mL; in series [1] (aqueous with cosolvent or surfactant or cyclodextrin, solvent Water/EtOH (50/50 v/v), read-out: Solubility) it was 9 mg/mL (≈ 16.7 mM); in series [1] (aqueous with cosolvent or surfactant or cyclodextrin, solvent Water/EtOH (60/40 v/v), read-out: Solubility), less than 4 mg/mL; in series [1] (aqueous with cosolvent or surfactant or cyclodextrin, solvent Water/IPA (20/80 v/v), read-out: Solubility), more than 30 mg/mL; in series [1] (aqueous with cosolvent or surfactant or cyclodextrin, solvent Water/IPA (40/60 v/v), read-out: Solubility), more than 37 mg/mL. The solubility is 9 mg/mL (≈ 16.7 mM) in series [1] (aqueous with cosolvent or surfactant or cyclodextrin, solvent Water/IPA (60/40 v/v), read-out: Solubility); more than 29 mg/mL in series [1] (aqueous with cosolvent or surfactant or cyclodextrin, solvent Water/MeOH (20/80 v/v), read-out: Solubility); 7 mg/mL (≈ 13 mM) in series [1] (aqueous with cosolvent or surfactant or cyclodextrin, solvent Water/MeOH (40/60 v/v), read-out: Solubility); less than 3 mg/mL in series [1] (aqueous with cosolvent or surfactant or cyclodextrin, solvent Water/MeOH (60/40 v/v), read-out: Solubility); 85 mg/mL (≈ 158 mM) in series [1] (organic solvent or mixture, solvent ACN, read-out: Solubility); 31 mg/mL (≈ 57.6 mM) in series [1] (organic solvent or mixture, solvent Acetone, read-out: Solubility). The solubility was more than 100 mg/mL in series [1] (organic solvent or mixture, solvent DCM, read-out: Solubility); less than 2 mg/mL in series [1] (organic solvent or mixture, solvent DIPE, read-out: Solubility); 38 mg/mL (≈ 70.6 mM) in series [1] (organic solvent or mixture, solvent EtOAc, read-out: Solubility); 99 mg/mL (≈ 184 mM) in series [1] (organic solvent or mixture, solvent EtOH, read-out: Solubility); less than 1 mg/mL in series [1] (organic solvent or mixture, solvent Heptane, read-out: Solubility); 79 mg/mL (≈ 147 mM) in series [1] (organic solvent or mixture, solvent IPA, read-out: Solubility). The solubility in series [1] (organic solvent or mixture, solvent MTBE, read-out: Solubility) was 4 mg/mL (≈ 7.43 mM); in series [1] (organic solvent or mixture, solvent MeOH, read-out: Solubility), 91 mg/mL (≈ 169 mM); in series [1] (organic solvent or mixture, solvent THF, read-out: Solubility), 95 mg/mL (≈ 176 mM); in series [1] (organic solvent or mixture, solvent Toluene, read-out: Solubility), 99 mg/mL (≈ 184 mM); in series [1] (solvent Water, read-out: Solubility), less than 1 mg/mL. Also, in series [2] (5% to 96% RH), the total water gained is 7.6 moles of water. In addition, the total weight gained in series [2] (5% to 96% RH) came out at 15.8%. In addition, the values for the weight gain in series [2] (from 75% to 96% RH) and in series [3] (from 5% to 74% RH) were 14.6 % wt and 1.2 % wt, respectively. The “XRPD analysis on the post-DVS sample (solid form)” value in series [3] (after DVS) is recorded as “amorphous”. Moreover, in series [3] (desorption step), the hysteresis on desorption entry was “very minor hysteresis; also recorded: Significant hysteresis”. The “water taken up during sorption” value in series [3] (from 5 to 95% RH) is listed as 0.1 moles of water per mole of API. Besides, the “weight gain during the sorption step” value in series [3] (from 5 to 95% relative humidity (RH)) was 0.4%. Moreover, the “appearance of sample after DVS” value in series [3] (upon desorption) was “signs of partial deliquescence”. In series [3] (water sorption isotherm, Ph. Eur. 10.0 classes), the hygroscopicity classification entry is recorded as “slightly hygroscopic”.
